In brackets after ≈: the same amount, converted by molar mass. Where only a bound is given, the exact number is not on record here.

The values that follow come from publication PMC3447335, “Evaluation of Pseudopteroxazole and Pseudopterosin Derivatives against Mycobacterium tuberculosis and Other Pathogens” (Marine Drugs, 2012).

The subject of series [1] is Vero cells. The series is described as follows: cells. The following applies: Chlorocebus sabaeus; for cytotoxicity at 128 µg/mL: read-out: Vero cell (% inh); for IC50: read-out: Vero cell IC50.
For series [2], the system named is M. tuberculosis H37Rv (ATCC 27294). The series is described as follows: microbe, parasite or virus in culture. Particulars: Mycobacterium tuberculosis; for inhibition at 64 µg/mL: % inhibition at 64 μg/mL, read-out: LORA % inh; for MIC: read-out: LORA MIC. Type of series: cell-based, Mycobacterium tuberculosis.
For series [3] the test system is unchanged. The series can be described thus: Microplate Alamar blue assay (MABA). The following applies: for SI (Selectivity Index): (Vero Cell IC50)/(M. tuberculosis MIC); for MIC: Mycobacterium tuberculosis. Type of series: cell-based, Mycobacterium tuberculosis.
For series [4], the system named is NCI-60 cell line. The following applies: cited from earlier work.
Series [5] has as its system M. tuberculosis H37Rv. Further details: method as in PMID 12828474. The following applies: natural 2 isolated from P. elisabethae, at 12.5 μg/mL (40 μM); cited from earlier work.
Series [6] deals with M. smegmatis (ATCC 12051). The series can be described thus: Microbroth dilution antibiotic susceptibility assay. Type of series: cell-based. The following applies: Mycolicibacterium smegmatis, ATCC12051; microbroth dilution; read-out: MIC M. smegmatis.
The subject of series [7] is MRSA. The description is as above. Particulars: Staphylococcus aureus, read-out: IC50 MRSA. Type of series: cell-based.
The subject of series [8] is M. diernhoferi (ATCC 19340). The series is described as above. Type of series: cell-based. Particulars: Mycolicibacterium diernhoferi, ATCC19340; microbroth dilution; read-out: MIC M. diernhoferi.
The subject of series [9] is VRE. The series is described as above. Type of series: cell-based, Enterococcus faecium. The following applies: Enterococcus, read-out: IC50 VRE.
The subject of series [10] is M. tuberculosis H37Rv. Further details: method as in PMID 9145860. The following applies: comparison values; cited from earlier work.
The mark [11] stands for this setting: non-replicating persistent model.
Where [12] appears, read: M. tuberculosis H37Rv (ATCC 27294), replicating, read-out: MABA MIC.

`CC(C)=C[C@@H]1C[C@H](C)[C@H]2CC[C@H](C)c3c2c1c(C)c1ncoc31` [Compound 1, pseudopteroxazole]: in [1], the cytotoxicity at 128 µg/mL was 0%. In addition, the IC50 in series [1] is above 128 µg/mL. For the same compound, in series [2], the inhibition at 64 µg/mL was 99.7%. The MIC in series [2] (setting [11]) was determined as 50 µg/mL; in series [2] (value given in μM) it was 162 µM; in series [3] (setting [12]), 15 µg/mL (≈ 48.5 µM); in [3] (wild-type M. tuberculosis H37Rv, Table 2 experiment, read-out: MABA MIC H37Rv) it was 7 µg/mL (≈ 22.6 µM). Moreover, the “SI (Selectivity Index)” value in series [3] is reported as above 8.6. Moreover, the “cytotoxicity against the NCI-60 cell line assay” value in series [4] is recorded as “no significant cytotoxicity”.
With `CCCCCc1nc2c(C)c3c4c(c2o1)[C@@H](C)CC[C@@H]4[C@@H](C)C[C@H]3C=C(C)C` [Compound 2, homopseudopteroxazole], in series [1], the cytotoxicity at 128 µg/mL is 0% and the IC50 was above 128 µg/mL. Also, the inhibition at 64 µg/mL in [2] stood at 22.6%. Besides, in series [3] (setting [12]), the MIC is above 128 µg/mL. Further, in series [3] (semi-synthetic material, MABA), the “activity against M. tuberculosis H37Rv” value is on record as “not active”. In [5], the “inhibition against M. tuberculosis H37Rv” value is 80%.
Regarding `COc1ccc(CC=C(C)C)c(OC)c1O` [Compound 14, 2,6-Dimethoxy-3-(3-methylbut-2-enyl)phenol], the MIC was 128 µg/mL (≈ 576 µM) in series [6], above 128 µg/mL in [3] (setting [12]) and 64 µg/mL (≈ 288 µM) in series [8]. Besides, the results for the IC50 in series [1], in [7] and in series [9] were 44 µg/mL (≈ 198 µM), above 128 µg/mL and above 128 µg/mL, respectively. Moreover, the inhibition at 64 µg/mL in [2] was -4.7%.
With `COc1cc(CC=C(C)C)c(CC=C(C)C)c(OC)c1O` [Compound 15, 2,6-Dimethoxy-3,4-bis(3-methylbut-2-enyl)phenol], the MIC worked out at 8 µg/mL (≈ 27.5 µM) in series [6], 58 µg/mL in series [2] (setting [11]), 59 µg/mL (≈ 203 µM) in series [3] (setting [12]) and 8 µg/mL (≈ 27.5 µM) in [8]. For the same compound, the IC50 was 64 µg/mL (≈ 220 µM) in series [1], 20 µg/mL (≈ 68.9 µM) in [7] and 3 µg/mL (≈ 10.3 µM) in [9]. For the same compound, the inhibition at 64 µg/mL in [2] turned out to be 99.7%. In series [3], the “SI (Selectivity Index)” value came to 1.1.
As to `COc1c(O)c(OC)c(CC=C(C)C)c(CC=C(C)C)c1CC=C(C)C` [Compound 16, 2,6-Dimethoxy-3,4,5-tris(3-methylbut-2-enyl)phenol], the MIC is above 128 µg/mL in series [6], 56 µg/mL (≈ 156 µM) in [3] (setting [12]) and 8 µg/mL (≈ 22.3 µM) in series [8]. Moreover, the cytotoxicity at 128 µg/mL in [1] turned out to be 29%. The IC50 in series [1] is above 128 µg/mL; in series [7] it was above 128 µg/mL; in [9] it was 3 µg/mL (≈ 8.37 µM). Further, the inhibition at 64 µg/mL in [2] is 79.7%. For the same compound, the “SI (Selectivity Index)” value in series [3] is reported as above 2.3.
For the compound `COc1ccc(CC=C(C)C)c(OC)c1O[C@@H]1O[C@H](CO)[C@H](O)[C@H](O)[C@H]1O` [Compound 20, 2,6-Dimethoxy-3-(3-methylbut-2-enyl)phenol-β-D-galactopyranoside], the MIC in series [6], in [3] (setting [12]) and in [8] was above 128 µg/mL each time. Further, the IC50 in series [1] is 82 µg/mL (≈ 213 µM); in [7], above 128 µg/mL; in [9], above 128 µg/mL. The inhibition at 64 µg/mL in series [2] was -24.8%.
Regarding `N[C@@H]1CON=C1O` [cycloserine], in series [10], the “MIC of first and second line TB treatments” value was 122 to 490 µM.
Consider `CC[C@@H](CO)NCCN[C@@H](CC)CO` [ethambutol], for which the “MIC of first and second line TB treatments” value in series [10] was 4.6 to 9.2 µM.
Regarding `NC[C@H]1O[C@H](O[C@H]2[C@H](O)[C@@H](O[C@H]3O[C@H](CO)[C@@H](O)[C@H](N)[C@H]3O)[C@H](N)C[C@@H]2N)[C@H](O)[C@@H](O)[C@@H]1O` [kanamycin], the “MIC of first and second line TB treatments” value in series [10] is 2.5 to 10.3 µM.
As to capreomycin, in series [10], the “MIC of first and second line TB treatments” value was 0.94 to 3.7 µM.
